Data taken from patent US20070072831A1, “Integrase inhibitor compounds” (GILEAD SCIENCES, INC., priority 2005, published 2007).

Experiments:
HIV integrase = HIV integrase (Human immunodeficiency virus type 1 group M subtype B, UniProt P04585); assay: biochemical
Protocol: Representative compounds of the invention were tested for biological activity by methods including anti-HIV assay, measuring inhibition of HIV-integrase strand transfer catalysis, and cytotoxicity.
HIV Integrase Assay (IC50 Determination)
The HIV Integrase assay is carried out in Reacti-Bind High Binding Capacity Streptavidin coated plates (Pierce # 15502) in 100 μl reactions. The wells of the plate are rinsed once with PBS. Each well is then coated at room temperature for 1 h with 100 μl of 0.14 μM Donor DNA with the following sequence:
After coating, the plate was washed twice with PBS. 3′processing of the Donor DNA is started by adding 80 μl of Integrase/buffer mixture (25 mM HEPES, pH 7.3, 12.5 mM DTT, 93.75 mM NaCl, 12.5 mM MgCl2, 1.25% Glycerol, 0.3125 uM integrase) to each well. 3′processing is allowed to proceed for 30 min at 37° C., after which, 10 μl of test compound and 10 μl of 2.5 uM DIG-labeled Target DNA with the following sequence:
are added to each well to allow strand transfer to proceed for 30 min at 37° C. The plate is then washed three times with 2×SSC for 5 min and rinsed once with PBS. For detection of integrated product, 100 μl of a 1/2000 dilution of HRP-conjugated anti-DIG antibody (Pierce #31468) are added to each well and incubated for 1 hour. The plate was then washed three times for 5 min each, with 0.05% Tween-20 in PBS. For signal development and amplification, 100 μl of SuperSignal ELISA Femto Substrate (Pierce #37075) are added to each well. Chemiluminescence (in relative light units) is read immediately at 425 nm in the SPECTRAmax GEMINI Microplate Spectrophotometer using the end point mode at 5 sec per well.
For IC50 determinations, eight concentrations of test compounds in a 1/2.2 dilution series are used.

HIV-IIIb = assay: Antiviral assay in MT-4 cells infected with HIV-IIIb; format: cell-based; settings: MT4, 120 h; MT-4 cells, HIV-IIIb, 5 days; read-out: EC50 Range MT-4
Outline: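 MT-4 cells mixed with HIV-IIIb at m.o.i. 0.1 and added at once to 5-fold serial compound dilutions (7 concentrations, triplicate) in medium with 10% FBS. After 5 days at 37° C, cell viability read by CellTiter-Glo chemiluminescence.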

CN(c1c2c(c(O)c3ncccc13)C(=O)N(Cc1cc(Cl)c(F)cc1F)C2)S(C)(=O)=O [Compound 204, N-(7-(5-chloro-2,4-difluorobenzyl)-9-hydroxy-8-oxo-7,8-dihydro-6H-pyrrolo[3,4-g]quinolin-5-yl)-N-methylmethanesulfonamide]
IC50 (HIV integrase): < 60 nM
EC50 (HIV-IIIb): < 60 nM
